Measured values reported in PubChem BioAssay AID2060495 (Molecular Pharmacology Branch, DTP, NCI, 2025).

Tested on: 521955-158-R2-J5-PDC complex spheroid viability
Test: Anticancer human tumor 521955-158-R2-J5-PDC patient-derived pancreatic carcinoma cell line growth inhibition [GQUAD]
Conditions: for IC50: curve of first compound; for viability, T/C: stronger effect = lower value
Outline: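 Tumor cells were grown as complex spheroids with HUVEC endothelial cells and mesenchymal stem cells as stroma. G-quadruplex stabilizers were combined with targeted agents over half-log dilutions from near the clinical Cmax, or from 10 microM.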

[1] = second compound 0.0316 µM, first compound 0.0316 µM
[2] = second compound 0.0316 µM, first compound 0.1 µM
[3] = second compound 0.0316 µM, first compound 0.316 µM
[4] = second compound 0.0316 µM, first compound 1 µM
[5] = second compound 0.0316 µM, first compound 3.16 µM
[6] = second compound 0.0316 µM, first compound 10 µM
[7] = second compound 0.1 µM, first compound 0.0316 µM
[8] = second compound 0.1 µM, first compound 0.1 µM
[9] = second compound 0.1 µM, first compound 0.316 µM
[10] = second compound 0.1 µM, first compound 1 µM
[11] = second compound 0.1 µM, first compound 3.16 µM
[12] = second compound 0.1 µM, first compound 10 µM
[13] = second compound 0.316 µM, first compound 0.0316 µM
[14] = second compound 0.316 µM, first compound 0.1 µM
[15] = second compound 0.316 µM, first compound 0.316 µM
[16] = second compound 0.316 µM, first compound 1 µM
[17] = second compound 0.316 µM, first compound 3.16 µM
[18] = second compound 0.316 µM, first compound 10 µM
[19] = second compound 1 µM, first compound 0.0316 µM
[20] = second compound 1 µM, first compound 0.1 µM
[21] = second compound 1 µM, first compound 0.316 µM
[22] = second compound 1 µM, first compound 1 µM
[23] = second compound 1 µM, first compound 3.16 µM
[24] = second compound 1 µM, first compound 10 µM
[25] = second compound 3.16 µM, first compound 0.0316 µM
[26] = second compound 3.16 µM, first compound 0.1 µM
[27] = second compound 3.16 µM, first compound 0.316 µM
[28] = second compound 3.16 µM, first compound 1 µM
[29] = second compound 3.16 µM, first compound 3.16 µM
[30] = second compound 3.16 µM, first compound 10 µM
[31] = second compound 10 µM, first compound 0.0316 µM
[32] = second compound 10 µM, first compound 0.1 µM
[33] = second compound 10 µM, first compound 0.316 µM
[34] = second compound 10 µM, first compound 1 µM
[35] = second compound 10 µM, first compound 3.16 µM
[36] = second compound 10 µM, first compound 10 µM
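Also: spheroids exposed to agents for one week before reading.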
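For viability, T/C in this document: 100% = DMSO vehicle control viability.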

CC(C)(O)C1CCC(Nc2ccc3ncc(-c4cccc(C(F)(F)F)c4)n3n2)CC1 (stereo unspecified) + Cc1[nH]c2ccc(F)cc2c1-c1nc2c3cccnc3c3ncccc3c2[nH]1
IC50 (second compound 0.0316 µM): 2050 nM | IC50 (second compound 0.1 µM): 1990 nM | IC50 (second compound 0.316 µM): 2010 nM | IC50 (second compound 1 µM): 1960 nM | IC50 (second compound 3.16 µM): 1930 nM | IC50 (second compound 10 µM): 1890 nM | viability, T/C [1]: 93.5% | viability, T/C [2]: 109% | viability, T/C [3]: 101% | viability, T/C [4]: 125% | viability, T/C [5]: 15.5% | viability, T/C [6]: 10.8% | viability, T/C [7]: 102% | viability, T/C [8]: 107% | viability, T/C [9]: 103% | viability, T/C [10]: 117% | viability, T/C [11]: 11.3% | viability, T/C [12]: 11.7% | viability, T/C [13]: 107% | viability, T/C [14]: 100% | viability, T/C [15]: 102% | viability, T/C [16]: 116% | viability, T/C [17]: 12.6% | viability, T/C [18]: 14.7% | viability, T/C [19]: 95.8% | viability, T/C [20]: 94.3% | viability, T/C [21]: 102% | viability, T/C [22]: 121% | viability, T/C [23]: 11.7% | viability, T/C [24]: 11.9% | viability, T/C [25]: 91.2% | viability, T/C [26]: 79.3% | viability, T/C [27]: 92.9% | viability, T/C [28]: 113% | viability, T/C [29]: 16.5% | viability, T/C [30]: 10.7% | viability, T/C [31]: 83.2% | viability, T/C [32]: 87.8% | viability, T/C [33]: 102% | viability, T/C [34]: 126% | viability, T/C [35]: 9.89% | viability, T/C [36]: 9.4%

Cc1[nH]c2ccccc2c1CCNCc1ccc(/C=C/C(=O)NO)cc1 + Cc1[nH]c2ccc(F)cc2c1-c1nc2c3cccnc3c3ncccc3c2[nH]1
IC50 (second compound 0.0316 µM): 112 nM | IC50 (second compound 0.1 µM): 156 nM | IC50 (second compound 0.316 µM): 137 nM | IC50 (second compound 1 µM): 224 nM | IC50 (second compound 3.16 µM): 207 nM | IC50 (second compound 10 µM): 157 nM | viability, T/C (second compound 0.0316 µM, first compound 0.000999 µM): 116% | viability, T/C (second compound 0.0316 µM, first compound 0.00316 µM): 120% | viability, T/C (second compound 0.0316 µM, first compound 0.00999 µM): 132% | viability, T/C [1]: 102% | viability, T/C (second compound 0.0316 µM, first compound 0.0999 µM): 54.1% | viability, T/C [3]: 23.1% | viability, T/C (second compound 0.1 µM, first compound 0.000999 µM): 106% | viability, T/C (second compound 0.1 µM, first compound 0.00316 µM): 109% | viability, T/C (second compound 0.1 µM, first compound 0.00999 µM): 122% | viability, T/C [7]: 116% | viability, T/C (second compound 0.1 µM, first compound 0.0999 µM): 64.5% | viability, T/C [9]: 27.3% | viability, T/C (second compound 0.316 µM, first compound 0.000999 µM): 96.4% | viability, T/C (second compound 0.316 µM, first compound 0.00316 µM): 108% | viability, T/C (second compound 0.316 µM, first compound 0.00999 µM): 117% | viability, T/C [13]: 114% | viability, T/C (second compound 0.316 µM, first compound 0.0999 µM): 58.3% | viability, T/C [15]: 27.8% | viability, T/C (second compound 1 µM, first compound 0.000999 µM): 105% | viability, T/C (second compound 1 µM, first compound 0.00316 µM): 123% | viability, T/C (second compound 1 µM, first compound 0.00999 µM): 131% | viability, T/C [19]: 106% | viability, T/C (second compound 1 µM, first compound 0.0999 µM): 102% | viability, T/C [21]: 27.9% | viability, T/C (second compound 3.16 µM, first compound 0.000999 µM): 106% | viability, T/C (second compound 3.16 µM, first compound 0.00316 µM): 110% | viability, T/C (second compound 3.16 µM, first compound 0.00999 µM): 118% | viability, T/C [25]: 109% | viability, T/C (second compound 3.16 µM, first compound 0.0999 µM): 92% | viability, T/C [27]: 25.6% | viability, T/C (second compound 10 µM, first compound 0.000999 µM): 92.4% | viability, T/C (second compound 10 µM, first compound 0.00316 µM): 105% | viability, T/C (second compound 10 µM, first compound 0.00999 µM): 110% | viability, T/C [31]: 115% | viability, T/C (second compound 10 µM, first compound 0.0999 µM): 66.3% | viability, T/C [33]: 24.7%

O=C(NO)c1cnc(N2CCN(S(=O)(=O)c3ccc4ccccc4c3)CC2)nc1 + Cc1[nH]c2ccc(F)cc2c1-c1nc2c3cccnc3c3ncccc3c2[nH]1
IC50 (second compound 0.0316 µM): 758 nM | IC50 (second compound 0.1 µM): 966 nM | IC50 (second compound 0.316 µM): 1430 nM | IC50 (second compound 1 µM): 1380 nM | IC50 (second compound 3.16 µM): 1490 nM | IC50 (second compound 10 µM): 1760 nM | viability, T/C [1]: 115% | viability, T/C [2]: 124% | viability, T/C [3]: 84.3% | viability, T/C [4]: 41.8% | viability, T/C [5]: 0.18% | viability, T/C [6]: 0.17% | viability, T/C [7]: 99.1% | viability, T/C [8]: 142% | viability, T/C [9]: 111% | viability, T/C [10]: 48.5% | viability, T/C [11]: 0.18% | viability, T/C [12]: 0.23% | viability, T/C [13]: 100% | viability, T/C [14]: 137% | viability, T/C [15]: 113% | viability, T/C [16]: 72.3% | viability, T/C [17]: 0.17% | viability, T/C [18]: 0.17% | viability, T/C [19]: 101% | viability, T/C [20]: 132% | viability, T/C [21]: 120% | viability, T/C [22]: 69.3% | viability, T/C [23]: 0.29% | viability, T/C [24]: 0.13% | viability, T/C [25]: 96.8% | viability, T/C [26]: 123% | viability, T/C [27]: 105% | viability, T/C [28]: 75.9% | viability, T/C [29]: 0.29% | viability, T/C [30]: 0.48% | viability, T/C [31]: 99.1% | viability, T/C [32]: 106% | viability, T/C [33]: 101% | viability, T/C [34]: 97.8% | viability, T/C [35]: 0.55% | viability, T/C [36]: 0.36%
